According to ChEMBL document CHEMBL3046188, “Prodrug-oriented molecular design of neonicotinoids: preparation of imidacloprid-related 5,5-dimethoxy-1,3-diazacyclohexane derivatives and their insecticidal activity” (2005):

Columns and labels:
Format in all cases: functional
Periplaneta americana [1] = assay: Insecticidal activity against Periplaneta americana (American cockroach) administered through injection into abdomen measured 24 hr post compound injection
Myzus persicae [2] = assay: Insecticidal activity against Myzus persicae (green peach aphid) reared on compound pre-treated […] plants assessed as insect mortality rate at 20 ppm measured 7 days post compound treatment
Periplaneta americana [3] = assay: Insecticidal activity against Periplaneta americana (American cockroach) administered through injection into abdomen co-injceted with 50 ug piperonyl butoxide and 50 ug NIA 16388 measured 24 hr post compound injection
Myzus persicae [4] = assay: Insecticidal activity against Myzus persicae (green peach aphid) reared on compound pre-treated […] plants assessed as insect mortality rate at 4 ppm measured 7 days post compound treatment
Periplaneta americana [5] = assay: Neuroblocking potency in Periplaneta americana (American cockroach) abdominal fifth and sixth ganglia assessed as neuroblocking concentration
Myzus persicae [6] = assay: Insecticidal activity against Myzus persicae (green peach aphid) reared on compound pre-treated […] plants assessed as insect mortality rate at 0.16 ppm measured 7 days post compound treatment
Myzus persicae [7] = assay: Insecticidal activity against Myzus persicae (green peach aphid) reared on compound pre-treated […] plants assessed as insect mortality rate at 0.8 ppm measured 7 days post compound treatment
Myzus persicae [8] = assay: Insecticidal activity against Myzus persicae (green peach aphid) reared on compound pre-treated […] plants assessed as insect mortality rate at 100 ppm measured 7 days post compound treatment

Structure (SMILES) | MLD (Periplaneta americana [1]) [µmol] | mortality at 20 ppm (Myzus persicae [2]) [%] | MLD (Periplaneta americana [3]) [µmol] | mortality at 4 ppm (Myzus persicae [4]) [%] | Activity (Periplaneta americana [5]) [mM] | mortality at 0.16 ppm (Myzus persicae [6]) [%] | mortality at 0.8 ppm (Myzus persicae [7]) [%] | mortality at 100 ppm (Myzus persicae [8]) [%]
COC1(OC)CN/C(=C\[N+](=O)[O-])N(CC2CCOC2)C1 (stereo not drawn) | >0.36 | 60 | >0.36 | 0 | >0.54 | – | – | –
COC1(OC)CN/C(=N\[N+](=O)[O-])N(Cc2cnc(Cl)s2)C1 | 0.24 | 100 | >0.34 | 100 | >0.56 | 50 | 60 | –
COC1(OC)CN(C)/C(=N\[N+](=O)[O-])N(Cc2cnc(Cl)s2)C1 | 0.36 | 100 | >0.36 | 100 | >0.54 | 40 | 60 | –
COC1(OC)CN/C(=C\[N+](=O)[O-])N(Cc2ccc(Cl)nc2)C1 | 0.35 | 90 | >0.44 | 60 | 1 | – | 0 | –
COC1(OC)CN/C(=N\[N+](=O)[O-])N(Cc2ccc(Cl)nc2)C1 | 0.19 | 100 | >0.38 | 100 | 0.56 | 60 | 90 | –
O=[N+]([O-])/N=C1\NCCCN1Cc1ccc(Cl)nc1 | 9.6e-05 | 100 | 0.015 | 100 | 0.0045 | 90 | 100 | –
CC1(C)CN/C(=N\[N+](=O)[O-])N(Cc2ccc(Cl)nc2)C1 | – | 60 | – | 0 | – | – | – | –
COC1(OC)CN/C(=N\C#N)N(Cc2ccc(Cl)nc2)C1 | >0.4 | 100 | >0.4 | 60 | 0.62 | 20 | 60 | –
N/C(=N\[N+](=O)[O-])NCc1ccc(Cl)nc1 | >0.4 | – | >0.4 | – | >0.65 | – | – | 60
COC1CN/C(=N\[N+](=O)[O-])N(Cc2ccc(Cl)nc2)C1 (stereo not drawn) | – | 40 | – | 0 | – | – | – | –
COC1(OC)CN(C)/C(=N\[N+](=O)[O-])N(Cc2ccc(Cl)nc2)C1 | 0.36 | 90 | >0.36 | 90 | >0.56 | 30 | 60 | –
C/N=C(\NCc1ccc(Cl)nc1)N[N+](=O)[O-] | 0.0051 | 100 | 0.0051 | 100 | 0.0085 | 100 | 100 | –
